Experimental data reported in patent US20240158412A1 (Faxian Therapeutics, LLC, priority 2021, published 2024).
pIC50: −log10 of the molar value.

Target: USP7 (Homo sapiens, UniProt Q93009)
Assay: biochemical
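Further: fluorescence intensity readout of USP7 enzymatic activity, reaction incubated 90 min at room temperature.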

USP7, sequence (Q93009 whole entry): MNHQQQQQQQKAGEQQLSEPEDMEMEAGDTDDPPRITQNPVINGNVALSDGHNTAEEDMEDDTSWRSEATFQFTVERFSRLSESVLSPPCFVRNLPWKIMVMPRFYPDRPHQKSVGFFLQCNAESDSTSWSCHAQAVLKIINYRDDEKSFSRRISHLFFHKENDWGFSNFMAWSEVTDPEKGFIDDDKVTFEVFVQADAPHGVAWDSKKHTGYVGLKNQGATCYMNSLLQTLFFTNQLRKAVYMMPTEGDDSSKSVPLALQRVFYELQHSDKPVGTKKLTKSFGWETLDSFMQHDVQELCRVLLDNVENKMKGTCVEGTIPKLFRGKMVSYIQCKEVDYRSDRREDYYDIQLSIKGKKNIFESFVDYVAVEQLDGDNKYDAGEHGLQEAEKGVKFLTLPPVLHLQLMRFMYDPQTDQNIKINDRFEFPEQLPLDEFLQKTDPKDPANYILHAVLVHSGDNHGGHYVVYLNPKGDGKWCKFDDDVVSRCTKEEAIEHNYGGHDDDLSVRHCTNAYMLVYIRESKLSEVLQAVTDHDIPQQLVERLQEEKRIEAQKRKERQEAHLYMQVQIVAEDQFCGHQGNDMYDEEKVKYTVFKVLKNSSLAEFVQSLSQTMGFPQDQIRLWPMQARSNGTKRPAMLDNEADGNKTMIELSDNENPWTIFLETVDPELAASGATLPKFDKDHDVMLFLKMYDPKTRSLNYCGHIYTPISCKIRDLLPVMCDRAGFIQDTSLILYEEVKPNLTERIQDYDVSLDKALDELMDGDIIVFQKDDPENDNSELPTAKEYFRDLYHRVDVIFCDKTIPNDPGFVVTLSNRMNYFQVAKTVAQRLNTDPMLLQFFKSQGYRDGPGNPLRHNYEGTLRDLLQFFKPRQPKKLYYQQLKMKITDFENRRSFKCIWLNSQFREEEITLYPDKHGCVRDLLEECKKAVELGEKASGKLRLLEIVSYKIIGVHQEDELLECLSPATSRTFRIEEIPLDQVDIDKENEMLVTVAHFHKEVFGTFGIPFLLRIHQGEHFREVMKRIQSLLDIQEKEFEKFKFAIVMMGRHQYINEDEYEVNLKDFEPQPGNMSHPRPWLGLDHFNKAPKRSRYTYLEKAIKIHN

SMILES | pIC50
CC1(C)C[C@H](N2CCCc3cc(C#N)cc(-c4ccnc5cc(Cn6c(=O)ccn(CC(F)(F)F)c6=O)sc45)c32)CN1 [Example 125, (S)-1-(5,5-dimethylpyrrolidin-3-yl)-8-(2-((2,6-dioxo-3-(2,2,2-trifluoroethyl)-2,3-dihydropyrimidin-1(6H)-yl)methyl)thieno[3,2-b]pyridin-7-yl)-1,2,3,4-tetrahydroquinoline-6-carbonitrile] | > 8.00
CCn1c(N(C)C)cc(=O)n(Cc2cc3nccc(-c4cc(C#N)cc5c4N([C@@H]4CNC(C)(C)C4)CCC5)c3s2)c1=O [Example 126, (S)-8-(2-((4-(dimethylamino)-3-ethyl-2,6-dioxo-2,3-dihydropyrimidin-1(6H)-yl)methyl)thieno[3,2-b]pyridin-7-yl)-1-(5,5-dimethylpyrrolidin-3-yl)-1,2,3,4-tetrahydroquinoline-6-carbonitrile] | > 8.00
CC1(C)C[C@H](N2CCCc3cc(C#N)cc(-c4ccnc5cc(Cn6ncc(C7CC7)cc6=O)sc45)c32)CN1 [Example 128, (S)-8-(2-((4-cyclopropyl-6-oxopyridazin-1(6H)-yl)methyl)thieno[3,2-b]pyridin-7-yl)-1-(5,5-dimethylpyrrolidin-3-yl)-1,2,3,4-tetrahydroquinoline-6-carbonitrile] | > 8.00
CC(C)c1cnn(Cc2cc3nccc(-c4cc(C#N)cc5c4N([C@@H]4CNC(C)(C)C4)CCC5)c3s2)c(=O)c1 [Example 129, (S)-1-(5,5-dimethylpyrrolidin-3-yl)-8-(2-((4-isopropyl-6-oxopyridazin-1(6H)-yl)methyl)thieno[3,2-b]pyridin-7-yl)-1,2,3,4-tetrahydroquinoline-6-carbonitrile] | > 8.00

The remaining lines, values ahead:

pIC50 | SMILES
> 8.00 | CC1(C)C[C@H](N2CCCc3cc(C#N)cc(-c4ccnc5cc(CN6C(=O)CN(C7CC(F)(F)C7)C6=O)sc45)c32)CN1 [Example 127, (S)-8-(2-((3-(3,3-difluorocyclobutyl)-2,5-dioxoimidazolidin-1-yl)methyl)thieno[3,2-b]pyridin-7-yl)-1-(5,5-dimethylpyrrolidin-3-yl)-1,2,3,4-tetrahydroquinoline-6-carbonitrile]
> 8.00 | CC1(C)C[C@H](N2CCCc3cc(C#N)cc(-c4ccnc5cc(CN6C(=O)CCCC6=O)sc45)c32)CN1 [Example 130, (S)-1-(5,5-dimethylpyrrolidin-3-yl)-8-(2-((2,6-dioxopiperidin-1-yl)methyl)thieno[3,2-b]pyridin-7-yl)-1,2,3,4-tetrahydroquinoline-6-carbonitrile]
> 8.00 | CC1(C)C[C@H](N2CCCc3cc(C#N)cc(-c4ccnc5cc(CN6C(=O)CN(C7CC7)C6=O)sc45)c32)CN1 [Example 131, (S)-8-(2-((3-cyclopropyl-2,5-dioxoimidazolidin-1-yl)methyl)thieno[3,2-b]pyridin-7-yl)-1-(5,5-dimethylpyrrolidin-3-yl)-1,2,3,4-tetrahydroquinoline-6-carbonitrile]
> 8.00 | Cc1cnn(Cc2cc3nccc(-c4cc(C#N)cc5c4N([C@@H]4CNC(C)(C)C4)CCO5)c3s2)c(=O)c1 [Example 134, (S)-4-(5,5-dimethylpyrrolidin-3-yl)-5-(2-((4-methyl-6-oxopyridazin-1(6H)-yl)methyl)thieno[3,2-b]pyridin-7-yl)-3,4-dihydro-2H-benzo[b][1,4]oxazine-7-carbonitrile]
> 8.00 | CC1(C)C[C@H](N2CCOc3cc(C#N)cc(-c4ccnc5cc(Cn6ncc(C7CC7)cc6=O)sc45)c32)CN1 [Example 135, (S)-5-(2-((4-cyclopropyl-6-oxopyridazin-1(6H)-yl)methyl)thieno[3,2-b]pyridin-7-yl)-4-(5,5-dimethylpyrrolidin-3-yl)-3,4-dihydro-2H-benzo[b][1,4]oxazine-7-carbonitrile]
> 8.00 | CC1(C)C[C@H](N2CCOc3cc(C#N)cc(-c4ccnc5cc(Cn6ncc(C(C)(C)C)cc6=O)sc45)c32)CN1 [Example 136, (S)-5-(2-((4-(tert-butyl)-6-oxopyridazin-1(6H)-yl)methyl)thieno[3,2-b]pyridin-7-yl)-4-(5,5-dimethylpyrrolidin-3-yl)-3,4-dihydro-2H-benzo[b][1,4]oxazine-7-carbonitrile]
